Data on four molecules can be found in patent US4496587A, “Inhibition of bacterial toxin release by prostaglandins” (priority 1983, dated 1985).

In series [1] the test system is C. difficile. Briefly: cytotoxin in filtrates of C. difficile cultures grown in the presence of prostaglandin (Prostaglandin Incubated with C. difficile), titrated on HFF mono-layers. The following applies: for effectiveness as an antitoxic prostaglandin: by itself, in words; for decrease of the amount of toxin released from C. difficile: assay described in Example 1, pharmacologically practical amount, definition of antitoxic prostaglandin. The class given is cell-based. The procedure: (§1) Forty-five filtrates of C. difficile cultures grown in the presence of different concentrations of 16,16-dimethyl-PGE2 were assayed for cytotoxin. (ATCC 9689 stands for American Type Culture Collection number 9689, and patients 1, 2, 3, and 4 refer to cultures extracted from various hospital patients.) The first 25 cultures were incubated with the prostaglandin (in the concentrations noted) for 24 hr. These cultures were then filtered and the supernate was submitted for cytotoxicity testing. The remaining 20 cultures were incubated without prostaglandin, filtered and then the prostaglandin was added to each supernate prior to cytotoxicity testing. The cytotoxin assay utilized human skin fibroblasts (HFF) as mono-layers in Costar 24 well-trays. The results are presented as the reciprocal of the cytotoxin dilution (serial 10-fold) causing altered cell morphology for 50% of the cells in the mono-layer. (see Table II.) Thus, 1000 means that a 1:1000 dilution of the filtrate caused an altered cell morphology for 50% of the cells in the mono-layer. Therefore, the higher the number, the more cytotoxin is present.

For series [2] the following is noted: by acid in the stomach; cited from earlier work.
Series [3] has as its system C. difficile. Kind of series: cytotoxin assay, prostaglandin added to supernate after incubation of C. difficile (Prostaglandin Added After Incubation), titrated on HFF mono-layers. The class given is cell-based. The procedure: as §1
Series [4] concerns Human skin fibroblasts (HFF). Briefly: attempted protection of HFF from cytotoxins from different sources (altered cell morphology). Format: cell-based. Here is the method: To determine whether the presence of 16,16-dimethyl-PGE2 might interfere with the cytotoxin assay, several concentrations of cytotoxins were assayed in the presence of various concentrations of a prostaglandin.
The cytotoxins used were from hamster cecum, a filtrate of C. difficile broth culture, and the filtate of human feces from a patient with "antibiotic diarrhea". Serial 10-fold dilutions of the cytotoxins were prepared in BME-3% fbs. (BME 3% fbs is basal medium of Eagle with 3% fetal bovine (BOVINE Serum and antibiotics.))
16,16-Dimethyl-PGE2 (5 mg/ml in absolute ethanol) was used and further diluted in absolute ethanol.
Human skin fibroblasts (HFF) monolayers in wells of Costar trays (24 well) were refed with 0.8 ml BME-3% fbs. 0.1 ml of the various prostaglandin concentrations and absolute ethanol alone were added to the appropriate wells. Separate wells were then treated with (0.1 ml) of the appropriate dilution of each cytotoxin. The trays were incubated at 37° and examined microscopically for evidence of altered cell morphology.
Attempted protection of HFF from cytotoxins from different
sources by 16,16-dimethyl-PGE2. The results are expressed as the
number of cells showing evidence of altered morphology due to
cytotoxin. (0 = no change, +1 = 25% of the cells are rounded,
+ 2 = 50% of the cells are rounded, +3 = 75% of the cells are
rounded, and +4 = 100% of the cells are rounded. Tox =
toxic concentration of prostaglandin.)

As to `CCCCC[C@@](C)(O)/C=C/[C@H]1[C@H](O)CC(=O)[C@@H]1C/C=C\CCCC(=O)O` [15(R)-15-methyl-PGE2], in the series on C. difficile [1], the “effectiveness as an antitoxic prostaglandin” value is “not highly effective”. Also, the “conversion in mammalian metabolism” value in series [2] is recorded as “converted by acid in the stomach to 15(S)-15-methyl-PGE2”.
`CCCCC[C@](C)(O)/C=C/[C@H]1[C@H](O)CC(=O)[C@@H]1C/C=C\CCCC(=O)O` [15(S)-15-methyl-PGE2]: in the series with C. difficile [1], the “decrease of the amount of toxin released from C. difficile” value (from here on “decrease of the amount of toxin released”) is recorded as “at least 90%” and the “effectiveness as an antitoxic prostaglandin” value is “effective”.
Regarding `CCCCC(C)(C)[C@@](C)(O)/C=C/[C@H]1[C@H](O)CC(=O)[C@@H]1C/C=C\CCCC(=O)O` [15(S)-16,16-trimethyl-PGE2], in the series on C. difficile [1], the “decrease of the amount of toxin released” value is “at least 90%”.
For `CCCCC(C)(C)[C@H](O)/C=C/[C@H]1[C@H](O)CC(=O)[C@@H]1C/C=C\CCCC(=O)O` [16,16-dimethyl-PGE2], the “Cytotoxin Dilution (reciprocal of the cytotoxin dilution causing altered cell morphology for 50% of the cells)” value is below 10 with C. difficile [1] (Control, 24 hr, prostaglandin 1 mcg/ml); below 10 in the series with C. difficile [1] (Control, 24 hr, prostaglandin 10 mcg/ml); below 10 with C. difficile [1] (Control, 24 hr, prostaglandin 50 mcg/ml); 100-1000 in the series with C. difficile [1] (incubated with C. difficile ATCC #9689, 24 hr, prostaglandin 1 mcg/ml); 100 in the series with C. difficile [1] (incubated with C. difficile ATCC #9689, 24 hr, prostaglandin 10 mcg/ml); 10 with C. difficile [1] (incubated with C. difficile ATCC #9689, 24 hr, prostaglandin 50 mcg/ml). Also, the “Cytotoxin Dilution (reciprocal of the cytotoxin dilution causing altered cell morphology for 50% of the cells)” value is recorded as 100-1000 in the series on C. difficile [1] (incubated with C. difficile strain Patient 1, 24 hr, prostaglandin 1 mcg/ml); 10 in the series on C. difficile [1] (incubated with C. difficile strain Patient 1, 24 hr, prostaglandin 10 mcg/ml); 10 with C. difficile [1] (incubated with C. difficile strain Patient 1, 24 hr, prostaglandin 50 mcg/ml); 10-100 in the series with C. difficile [1] (incubated with C. difficile strain Patient 2, 24 hr, prostaglandin 1 mcg/ml); 10-100 in the series with C. difficile [1] (incubated with C. difficile strain Patient 2, 24 hr, prostaglandin 10 mcg/ml); below 10 in the series on C. difficile [1] (incubated with C. difficile strain Patient 2, 24 hr, prostaglandin 50 mcg/ml). For the same molecule, the “Cytotoxin Dilution (reciprocal of the cytotoxin dilution causing altered cell morphology for 50% of the cells)” value with C. difficile [1] (incubated with C. difficile strain Patient 3, 24 hr, prostaglandin 1 mcg/ml) is recorded as below 10; with C. difficile [1] (incubated with C. difficile strain Patient 3, 24 hr, prostaglandin 10 mcg/ml), below 10; in the series on C. difficile [1] (incubated with C. difficile strain Patient 3, 24 hr, prostaglandin 50 mcg/ml), below 10; in the series with C. difficile [1] (incubated with C. difficile strain Patient 4, 24 hr, prostaglandin 1 mcg/ml), 100; in the series with C. difficile [1] (incubated with C. difficile strain Patient 4, 24 hr, prostaglandin 10 mcg/ml), 10-100; in the series with C. difficile [1] (incubated with C. difficile strain Patient 4, 24 hr, prostaglandin 50 mcg/ml) it was 10. The “Cytotoxin Dilution (reciprocal of the cytotoxin dilution causing altered cell morphology for 50% of the cells)” value is 100-1000 with C. difficile [3] (ATCC #9689, prostaglandin 1 mcg/ml); 10-100 in the series with C. difficile [3] (ATCC #9689, prostaglandin 10 mcg/ml); 10 in the series on C. difficile [3] (ATCC #9689, prostaglandin 50 mcg/ml); 1000 in the series with C. difficile [3] (Patient 1, prostaglandin 1 mcg/ml); below 100 in the series with C. difficile [3] (Patient 1, prostaglandin 10 mcg/ml); 100 in the series on C. difficile [3] (Patient 1, prostaglandin 50 mcg/ml). Besides, the “Cytotoxin Dilution (reciprocal of the cytotoxin dilution causing altered cell morphology for 50% of the cells)” value is on record as 10 in the series on C. difficile [3] (Patient 2, prostaglandin 1 mcg/ml); 10 in the series on C. difficile [3] (Patient 2, prostaglandin 10 mcg/ml); below 10 in the series on C. difficile [3] (Patient 2, prostaglandin 50 mcg/ml); below 10 in the series with C. difficile [3] (Patient 3, prostaglandin 1 mcg/ml); below 10 with C. difficile [3] (Patient 3, prostaglandin 10 mcg/ml); 100-1000 in the series with C. difficile [3] (Patient 4, prostaglandin 1 mcg/ml). The “Cytotoxin Dilution (reciprocal of the cytotoxin dilution causing altered cell morphology for 50% of the cells)” value in the series on C. difficile [3] (Patient 4, prostaglandin 10 mcg/ml) is reported as 100; with C. difficile [3] (Patient 4, prostaglandin 50 mcg/ml), 10-100. For the same molecule, the “amount of toxin with increasing amount of prostaglandin” value in the series on C. difficile [1] (Table II overall) is recorded as “as the amount of prostaglandin increases, the amount of toxin decreases”. For the same molecule, the “decrease of the amount of toxin released” value in the series on C. difficile [1] is “at least 90%”. The “cells showing evidence of altered morphology due to cytotoxin” value in series [4] (C. difficile filtrate 1:10, prostaglandin 0.01 mcg/ml) is 4; in series [4] (C. difficile filtrate 1:10, prostaglandin 0.1 mcg/ml), 4; in series [4] (C. difficile filtrate 1:10, prostaglandin 1 mcg/ml) it was 4; in series [4] (C. difficile filtrate 1:10, prostaglandin 10 mcg/ml), 4; in series [4] (C. difficile filtrate 1:100, prostaglandin 0.01 mcg/ml), 4; in series [4] (C. difficile filtrate 1:100, prostaglandin 0.1 mcg/ml) it was 4. Moreover, the “cells showing evidence of altered morphology due to cytotoxin” value in series [4] (C. difficile filtrate 1:100, prostaglandin 1 mcg/ml) is 4; in series [4] (C. difficile filtrate 1:100, prostaglandin 10 mcg/ml) it was 4; in series [4] (C. difficile filtrate 1:1000, prostaglandin 0.01 mcg/ml), 3; in series [4] (C. difficile filtrate 1:1000, prostaglandin 0.1 mcg/ml) it was 3; in series [4] (C. difficile filtrate 1:1000, prostaglandin 1 mcg/ml), 3; in series [4] (C. difficile filtrate 1:1000, prostaglandin 10 mcg/ml), 3. Also, the “cells showing evidence of altered morphology due to cytotoxin” value in series [4] (Human cytotoxin 1:10, prostaglandin 0.01 mcg/ml) was determined as 4; in series [4] (Human cytotoxin 1:10, prostaglandin 0.1 mcg/ml), 4; in series [4] (Human cytotoxin 1:10, prostaglandin 1 mcg/ml) it was 4; in series [4] (Human cytotoxin 1:10, prostaglandin 10 mcg/ml), 4; in series [4] (Human cytotoxin 1:100, prostaglandin 0.01 mcg/ml), 4; in series [4] (Human cytotoxin 1:100, prostaglandin 0.1 mcg/ml) it was 4. Besides, the “cells showing evidence of altered morphology due to cytotoxin” value was determined as 4 in series [4] (Human cytotoxin 1:100, prostaglandin 1 mcg/ml); 3 in series [4] (Human cytotoxin 1:100, prostaglandin 10 mcg/ml); 1 in series [4] (Human cytotoxin 1:1000, prostaglandin 0.01 mcg/ml); 1 in series [4] (Human cytotoxin 1:1000, prostaglandin 0.1 mcg/ml); 1 in series [4] (Human cytotoxin 1:1000, prostaglandin 1 mcg/ml); 1 in series [4] (Human cytotoxin 1:1000, prostaglandin 10 mcg/ml). Moreover, the “effect on the interaction of the cytotoxin with the cell” value in series [4] (conclusion from Table III) was “did not affect the interaction of the cytotoxin with the cell”. In series [4] (cytotoxins from three different sources), the “protecting fibroblasts from morphological changes due to the action of the cytotoxin” value is “ineffective”.
